Test results reported in patent US10952992B2, “Methods of treating intraocular pressure with activators of Tie-2” (Aerpio Pharmaceuticals, Inc., priority 2015, dated 2021).

Key:
[1] = Example 2 aqueous humor concentrations; type: in vivo, male New Zealand White rabbits; conditions: intravitreal, topical ocular, subcutaneous
Description: (§1) To measure the concentration of Compound 1 in plasma and ocular tissues following topical ocular, subcutaneous, and intravitreal administration, New Zealand White rabbits were administered Compound 1, and plasma and ocular samples were collected at pre-determined time points. Compound 1 formulations were prepared fresh on each day of dosing.
(§2) Ocular tissue samples from both eyes of each animal were collected and weights were recorded. Plasma and ocular tissue sample concentrations of Compound 1 were determined by LC-MS/MS.
(§3) Animals were anesthetized for ocular (topical) and intravitreal dosing following the 12IA7 IACUC protocol. Each rabbit received a bolus dose of test formulation either via topical ocular administration 3 times daily on Days 1 and 2 (at 0, 6, and 12 hours), and once on Day 3 (at 0 hours) into both eyes; via intravitreal administration into both eyes once on Day 1 (at 0 hours); or via subcutaneous administration 2 times daily on Days 1 and 2 (at 0 and 8 hours) and once daily on Day 3 (at 0 hours). Doses were given within an approximately 1 hour window each day where applicable.
(§4) On Day 1, for intravitreal administration, or on Day 3, for topical ocular and subcutaneous administration, at the appropriate ocular tissue collection time points, animals were euthanized and both eyes were enucleated immediately. Following enucleation, each eye was rinsed with phosphate-buffered saline. Ocular tissue samples from both eyes of each animal were collected at predetermined time points and weights were recorded. All the samples were frozen immediately on dry ice, and stored at −60° C. to −80° C. pending bioanalysis.
(§5) An LC-MS/MS method was developed for the determination of Compound 1 in rabbit aqueous tissues (plasma, aqueous and vitreous humor) and solid ocular tissue samples. A pre-study standard curve was analyzed to determine the specificity, range, and lower limit of quantitation of the method. Plasma and tissue homogenate study samples were extracted and analyzed. All the samples were treated identically to the standards.
(§6) One eight-point standard curve was used in each analytical batch. To be accepted, each batch must have had at least five of eight standards with accuracy within ±20% of nominal, except at the lower limit of quantification (LLOQ), where ±25% was acceptable.

[2] = Example 2 iris, retina, choroid and cornea tissue concentrations; type: in vivo, male New Zealand White rabbits
Description: as §1, §2, §3, §4, §5, §6

SMILES: COC(=O)N[C@@H](Cc1ccccc1)C(=O)N[C@@H](Cc1ccc(NS(=O)(=O)O)cc1)c1csc(-c2cccs2)n1 [Compound 1]
- rank order of exposure in aqueous and vitreous humor by route [1]: intravitreal>>topical ocular>subcutaneous
- iris, retina, choroid, cornea concentrations, intravitreal relative to subcutaneous or ocular topical ([2]; both test formulations): higher concentrations
- persistence of concentrations in all ocular tissues ([2]; intravitreal administration of both test formulations): persisted at 72 hours
